In patent US7638554B2, “Flavanoids as chemotherapeutic, chemopreventive, and antiangiogenic agents” (SRI International, priority 2002, dated 2009):
Read-outs that look alike come from different tables or passages of the source.

How the values were obtained:
[1] = test system: MDA-MB-231 (ER−) breast cancer cell line; assay: Growth inhibition assay, MTT, MDA-MB-231 breast cancer cells; format: cell-based, human; conditions: eight days, average of at least two experiments
Protocol: (§1) Compounds of the invention were tested for their ability to inhibit growth in two breast cancer cell lines, MCF-7 (ER+) and MDA-MB-231 (ER−).
(§2) The growth inhibition assays were conducted using routine methods. Briefly, the cells were seeded in 24-well plates at a density of 2000 cells per well in 200 μL of […] growth medium. To each well was added 10 μL of DMSO containing the dissolved test compound; final DMSO concentration in each well was not more than 0.5%. Each test compound was assayed at concentrations of 0.4, 2, 10, and 50 μM. The plates were incubated for eight days, with the media and test solutions replaced every third day. On Day 8, the viable cells were measured by the MTT assay, as described in Mosmann et al. (1983), “Rapid Colorimetric Assay for Cellular Growth and Survival: Application to Proliferation and Cytotoxicity,” J. Immunol. Method. 65:55-63. The optical density at 575 nm of each test well was measured and compared to that for control wells, and the data used to calculate the percentage of growth inhibition at different concentrations. The IC50 value (the concentration of growth inhibitor that results in 50% growth inhibition of the cells in culture relative to control cells not exposed to any growth inhibitor) was determined by plotting dose-response curves.
(§3) The calculated IC50 values are set forth in Table 1, with the results representing the average of at least two experiments conducted for each compound at each of the four concentrations.

[2] = test system: MCF-7 (ER+) breast cancer cell line; assay: Growth inhibition assay, MTT, MCF-7 breast cancer cells; format: cell-based, human; conditions: MTT assay, eight days, average of at least two experiments, read-out: GROWTH INHIBITION (IC50) MCF-7 (ER+)
Protocol: as §1, §2, §3

[3] = test system: prostate cancer cell line LNCaP; assay: Growth inhibition, sulforhodamine-based protein determination, LNCaP; format: cell-based; conditions: Homo sapiens, Table 5, read-out: Growth Inhibition (IC50), LNCaP cells
Protocol: The novel compound SR 13179 was assayed for its ability to inhibit growth in several cancer cell lines. The cell lines studied included breast cancer cell line MCF-7 (ER+); prostate cancer cell lines LNCaP, PC3, and DU145; lung cancer cell line A427; ovarian cancer cell lines IGROV1, OVCAR-3, OVCAR-4, OVCAR-5, OVCAR-8, and SK-OV-3; and colon cancer cell lines COLO 205, HCC-2998, HCT-116, HCT-15, HT29, KM12, AND SW-620.
The growth assays for the breast cancer cell lines were conducted according to the method of Example 16. For the other cell lines, each assay was conducted with continuous exposure to the test compound at four log concentrations for six days, using a sulforhodamine-based protein determination to measure growth inhibition.
The procedure of Example 20 was used to evaluate the growth inhibitory effect of various compounds of the invention on LNCaP cells.

[4] = test system: chick chorioallantoic membrane (CAM) blood vessels; assay: Chick chorioallantoic membrane (CAM) assay for antiangiogenic activity; format: in vivo; conditions: 11.1 μg/CAM, once daily for 12-14 days
Protocol: The CAM assay, which is widely applied to evaluate in vivo antiangiogenic activity, was utilized with SR 13179.
The methods used were those of Folkman (Auerbach et al. (1974) Dev. Biol. 41:391-394), with some modifications. The test compound was dissolved in saline and methylcellulose, and the embryos dosed once daily for 12-14 days. Blood vessel density of each embryo was measured as the quantitative endpoint. The known antiangiogenic compound medroxyprogesterone acetate (MPA) was used as a positive control.

[5] = Homo sapiens, MDA-MB-231, 192 h

Compound | IC50 ([2]; Homo sapiens, MCF7, 192 h) | IC50 [1, 5] | also measured
3-(3,4,5-Trimethoxyphenyl)-2,3-dihydro-benzo[F]chromen-1-one [SR 13182] |  |  | IC50 [1]: > 50 µM; IC50 [2]: > 50 µM
COc1cc(C2CC(O)c3c(ccc4ccccc34)O2)cc(OC)c1OC (centres unmarked) [SR 13187, 3-(3,4,5-TRIMETHOXYPHENYL)-2,3-DIHYDRO-1H-BENZO[F]CHROMEN-1-OL] | 6.29 µM |  | IC50 [3]: 17.7 µM
CC(=O)O[C@]1(C(C)=O)CC[C@H]2[C@@H]3C[C@H](C)C4=CC(=O)CC[C@]4(C)[C@H]3CC[C@@]21C [MPA, medroxyprogesterone acetate, reference compound] |  |  | Blood vessel density score [4]: 4.5 ± 2.3; Percent inhibition relative to control [4]: 58%
COc1ccc(C2CC(O)c3c(OC)cc(OC)cc3O2)cc1 (centres unmarked) [SR 13189, 5,7-DIMETHOXY-2-(4-METHOXY-PHENYL)-CHROMAN-4-OL] | > 50 µM | > 50 µM | 
OC1CC(c2cc(OCc3ccccc3)c(OCc3ccccc3)c(OCc3ccccc3)c2)Oc2cc(OCc3ccccc3)cc(OCc3ccccc3)c21 (centres unmarked) [SR 13183, 5,7-BIS-BENZYLOXY-2-(3,4,5-TRIS-BENZYLOXY-PHENYL)-CHROMAN-4-OL] | > 100 µM | 13.6 µM | 
OC1CC(c2cc(OCc3ccccc3)c(OCc3ccccc3)c(OCc3ccccc3)c2)Oc2c1ccc1ccccc21 (centres unmarked) [SR 13191, 2-(3,4,5-TRIS-BENZYLOXY-PHENYL)-3,4-DIHYDRO-2H-BENZO[H]CHROMEN-4-OL] | 19.9 µM | > 50 µM | IC50 [3]: 6.58 µM
O=C1CC(c2cc(OCc3ccccc3)c(OCc3ccccc3)c(OCc3ccccc3)c2)Oc2c1ccc1ccccc21 (centres unmarked) [SR 13186, 2-(3,4,5-TRIS-BENZYLOXY-PHENYL)-2,3-DIHYDRO-BENZO[H]CHROMEN-4-ONE] | 7.32 µM | 9.84 µM | 
O=C(/C=C/c1cc(OCc2ccccc2)c(OCc2ccccc2)c(OCc2ccccc2)c1)c1ccc2ccccc2c1O [SR 13185, 1-(1-HYDROXY-NAPHTHALEN-2-YL)-3-(3,4,5-TRIS-BENZYLOXY-PHENYL)-PROPENONE] | 5.08 µM | 0.562 µM | 
COc1ccc(C2CC(=O)c3c(OC)cc(OC)cc3O2)cc1 (centres unmarked) [SR 13188, 5,7-DIMETHOXY-2-(4-METHOXY-PHENYL)-CHROMAN-4-ONE] | > 50 µM | > 50 µM | IC50 [3]: 3.34 µM
O=C1CC(c2cc(OCc3ccccc3)c(OCc3ccccc3)c(OCc3ccccc3)c2)Oc2cc(OCc3ccccc3)cc(OCc3ccccc3)c21 (centres unmarked) [SR 13180, 5,7-BIS-BENZYLOXY-2-(3,4,5-TRIS-BENZYLOXY-PHENYL)-CHROMAN-4-ONE] | > 50 µM | > 50 µM | 
COc1cc(/C=C/C(=O)c2ccc3ccccc3c2O)cc(OC)c1OC [SR 13176, 1-(1-Hydroxy-naphthalen-2-yl)-3-(3,4,5-trimethoxyphenyl)-propenone] | > 50 µM | 39 µM | 
COc1cc(C2CC(=O)c3c(ccc4ccccc34)O2)cc(OC)c1OC (centres unmarked) [SR 13181, 3′,4′,5′-TRIMETHOXY-B-NAPHTHAFLAVAN-4-ONE] |  |  | IC50 [1]: > 100 µM; IC50 [2]: > 100 µM
COc1cc(C2CC(=O)c3ccc4ccccc4c3O2)cc(OC)c1OC (centres unmarked) [SR 13177, 2-(3,4,5-TRIMETHOXYPHENYL)-2,3-DIHYDRO-BENZO[H]CHROMEN-4-ONE] | 4.65 µM |  | IC50 [3]: 2.52 µM
COc1cc([C@@H]2CC(O)c3cc4c(cc3O2)CCCC4)cc(OC)c1OC (some centres unmarked) [SR 13817, 5-(4-hydroxy-3,4,6,7,8,9-hexahydro-2H-benzo[g]chromen-2-yl)benzene-1,2,3-trimethoxy] |  |  | IC50 [1]: 1.51 µM; IC50 [2]: 0.56 µM
O=C(C=Cc1cc(OCc2ccccc2)c(OCc2ccccc2)c(OCc2ccccc2)c1)c1c(O)cc(OCc2ccccc2)cc1OCc1ccccc1 [SR 13178, 1-(2,4-Bis-benzyloxy-6-hydroxyphenyl)-3-(3,4,5-tris-benzyloxy-phenyl)-propenone] |  |  | IC50 [1]: > 100 µM; IC50 [2]: 53 µM
